TGI and GI50 data for 19 compounds are collected here from PubChem BioAssay (NCI).

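Five concentrations, 48 hours, 96-well plates. GI50 = concentration required for 50% inhibition of growth. TGI: total growth inhibition.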

Among the test systems are HT29 colon; A549 NSCLC; UACC-62 melanoma; COLO 205 colon; SNB-19 CNS; UO-31 renal; HS 578T breast; NCI-H460 lung.
What all share (assay): inhibition of tumour cell growth, NCI panel, 48 h

With `O=C1C=C/C(=N\N=C(c2ccccc2)c2ccccc2)O1`, the TGI with HT29 colon, with A549 NSCLC, in the test with UACC-62 melanoma and in the test on COLO 205 colon was > 10 µM throughout.
For `Cc1cccc(C)c1NC(=O)C(Cc1c[nH]c2ccccc12)NC(=O)OCc1ccccc1` (stereo unspecified), the TGI in the test on SNB-19 CNS came to 51.6 µM; with HT29 colon, 68.7 µM; in the test on A549 NSCLC, 46.6 µM; in the test on UACC-62 melanoma, 41.3 µM; in the test with UO-31 renal it was 32.9 µM; with COLO 205 colon, 27.6 µM. Moreover, the TGI was > 100 µM in the test with HS 578T breast and 43.6 µM in the test on NCI-H460 lung.
For `O=C1NC(N2CCOCC2)=N/C1=C\c1ccco1`, the TGI with SNB-19 CNS, with HT29 colon, with A549 NSCLC, with UACC-62 melanoma, with UO-31 renal and in the test on COLO 205 colon was > 100 µM in each case. Also, the TGI in the test with HS 578T breast was > 100 µM.
Regarding `Nc1ccc(N=Nc2c(S(=O)(=O)O)cc3ccccc3c2S(=O)(=O)O)cc1`, the TGI with SNB-19 CNS, with HT29 colon, in the test with A549 NSCLC, in the test with UACC-62 melanoma, in the test with UO-31 renal and with HS 578T breast was > 100 µM in each case. The TGI in the test on NCI-H460 lung is > 100 µM.
As to `CC(=O)NC1C(OCc2ccccc2)OC(CO)C(O)C1OCC(=O)N[C@@H](C)C(=O)N[C@H](CCC(=O)NCCCNc1c2ccccc2nc2cccc([N+](=O)[O-])c12)C(N)=O` (stereo partly specified), the TGI with SNB-19 CNS came to 0.552 µM; in the test with HT29 colon, 0.199 µM; with UACC-62 melanoma, 0.0601 µM; with UO-31 renal it was 0.341 µM; in the test on COLO 205 colon it was 0.0185 µM; in the test with HS 578T breast it was 0.675 µM. This compound displayed a TGI with NCI-H460 lung of 0.0609 µM.
Regarding `COc1cc2c(cc1OC)C1C3CCCCC3CCN1CC2` (stereo unspecified), the TGI in the test with SNB-19 CNS, in the test with HT29 colon, in the test on A549 NSCLC, in the test with UACC-62 melanoma, in the test on COLO 205 colon and in the test on HS 578T breast was > 100 µM throughout. For the same compound, the TGI with NCI-H460 lung is > 100 µM.
With `Cc1ccc(S(=O)(=O)n2c3c(c4ccccc42)CCN2C[C@H]([C@H](C)Br)CC[C@@H]32)cc1`, the TGI with SNB-19 CNS, in the test on HT29 colon, with A549 NSCLC, with UACC-62 melanoma, in the test with UO-31 renal and with COLO 205 colon was > 100 µM each time. Moreover, the TGI in the test with NCI-H460 lung was > 100 µM.
As to `COc1cc(OC)cc(C(=O)CC(=O)c2cc(OC)cc(OC)c2)c1`, the TGI with SNB-19 CNS, with A549 NSCLC, in the test on UACC-62 melanoma, with UO-31 renal, with COLO 205 colon and in the test on HS 578T breast was > 100 µM throughout. The TGI with NCI-H460 lung is > 100 µM.
Take `NC(=O)c1c(NC(=O)c2ccccc2)sc2c1CCC(=O)C2`: the GI50 is 3.29 µM with SNB-19 CNS; 2.33 µM in the test with HT29 colon; 3.58 µM in the test with A549 NSCLC; 0.723 µM in the test with UACC-62 melanoma; 0.865 µM in the test with UO-31 renal; 1.2 µM in the test with HS 578T breast. Also, the GI50 in the test with NCI-H460 lung is 3.04 µM. For the same compound, the TGI in the test with SNB-19 CNS is > 100 µM; in the test on HT29 colon, > 100 µM; with A549 NSCLC, > 100 µM; with UACC-62 melanoma, 2.51 µM; in the test on UO-31 renal it was 2.32 µM; with HS 578T breast, 6.97 µM. Further, in the test on NCI-H460 lung, the TGI was > 100 µM.
Consider `CCCNc1ncnc2c1ncn2C`, for which the TGI with SNB-19 CNS, with A549 NSCLC, in the test with UACC-62 melanoma, in the test on UO-31 renal and with COLO 205 colon was > 100 µM throughout.
As for `C=C1CC(C#N)(C#N)[C@H]2C3CCCC3C[C@@H]12` (stereo partly specified) (tested in a mixture with another compound), the TGI was 67.4 µM in the test on SNB-19 CNS; 28.1 µM in the test on HT29 colon; > 100 µM in the test on UACC-62 melanoma; 35.3 µM in the test with UO-31 renal; > 100 µM with HS 578T breast.
In the case of `C=CCn1c(=O)c(C(=O)Nc2nc(C34CC5CC(CC(C5)C3)C4)cs2)c(O)c2ccccc21`, the TGI in the test with SNB-19 CNS was > 100 µM; in the test with HT29 colon, > 100 µM; in the test on A549 NSCLC it was 45.1 µM; in the test with UO-31 renal, > 100 µM; in the test on COLO 205 colon, > 100 µM; with HS 578T breast, > 100 µM. In addition, the TGI with NCI-H460 lung was > 100 µM.
Consider `O=C1OC(C2Cc3ccc4ccccc4c3C2=O)c2ccccc21` (stereo unspecified), for which the TGI was 92.6 µM in the test on SNB-19 CNS; > 100 µM in the test on A549 NSCLC; > 100 µM in the test on UACC-62 melanoma; > 100 µM with UO-31 renal; > 100 µM with COLO 205 colon; 88.9 µM in the test with HS 578T breast. For the same compound, in the test on NCI-H460 lung, the TGI is > 100 µM.
As to `CC(C)c1cc2c(c(O)c1O)[C@@]1(C(=O)O)CCCC(C)(C)[C@@H]1CC2`, the TGI in the test on HT29 colon is 30.7 µM; in the test on A549 NSCLC, 67.4 µM; in the test with UACC-62 melanoma, 30.8 µM; in the test on UO-31 renal, 27.4 µM; with COLO 205 colon, > 100 µM; in the test with HS 578T breast it was 67.8 µM. Moreover, the TGI with NCI-H460 lung worked out at 50.9 µM.
In the case of `CC(c1ccccc1)N1CCN(C(C)c2ccccc2)CC1` (stereo unspecified), the TGI in the test on SNB-19 CNS, in the test on HT29 colon, in the test on A549 NSCLC, in the test on UACC-62 melanoma, in the test on UO-31 renal and with HS 578T breast was > 100 µM each time. Further, in the test on NCI-H460 lung, the TGI is > 100 µM.
For `N#CNC(=NCc1ccccc1)N(Cc1ccccc1)Cc1ccccc1`, the TGI in the test with SNB-19 CNS was > 100 µM; in the test on A549 NSCLC, > 31.6 µM; with UACC-62 melanoma, 23.4 µM; with UO-31 renal it was 29.3 µM; in the test on NCI-H460 lung, > 31.6 µM.
On to `O=C(O)c1ccccc1CC(Cc1ccc2c(c1)CCC2)C(=O)O` (stereo unspecified), for which the TGI in the test with SNB-19 CNS, in the test on HT29 colon, in the test with A549 NSCLC, in the test on UO-31 renal, in the test on COLO 205 colon and with HS 578T breast was > 100 µM in each case. Moreover, the TGI in the test with NCI-H460 lung is > 100 µM.
As to `NS(=O)(=O)c1ccc(NC(=S)/N=C/C2=C(O)c3ccccc3C2=O)cc1`, the TGI in the test with SNB-19 CNS is > 100 µM; with A549 NSCLC, > 100 µM; with UACC-62 melanoma, > 100 µM; with UO-31 renal, 85.6 µM; with COLO 205 colon, > 100 µM; with HS 578T breast, > 100 µM. Also, in the test on NCI-H460 lung, the TGI was > 100 µM.
Regarding `C=CCc1cc(-c2nc(=S)[nH][nH]2)ccc1N=NNc1ccc(C(=O)O)cc1`, the TGI in the test with SNB-19 CNS is > 100 µM; with HT29 colon, > 100 µM; with A549 NSCLC it was > 100 µM; in the test with UO-31 renal, > 100 µM; in the test on COLO 205 colon, 58 µM; in the test with HS 578T breast, > 100 µM.
